From patent US6924304B2, “Cell proliferation inhibitors” (Abbott Laboratories, priority 1999, dated 2005)
Counter-ions that a name gives are not always drawn.

Tests used:
[1] = tested on: human lung large cell carcinoma, MDR negative (NCI-H460) cells; experiment: 48-hour cellular proliferation assay (sulforhodamine staining), NCI-H460 cells; assay type: cell-based; settings: 10^−4 M compound; for inhibition at 100 µM: Homo sapiens, read-out: NCI-460 % inhibition at 10^−4 M
Procedure: (§1) Compounds of this invention were tested in a 48-hour cellular proliferation assay which uses human colon adenocarcinoma, MDR positive (HCT-15) cells, and human lung large cell carcinoma, MDR negative (NCI-H460) cells, in the 96-well microtitre format described in Skehan P., et al. New Colorimetric Cytotoxicity Assay for Anticancer Drug Screening. 1990, J. Natl. Cancer Inst. 82:1107-1112, hereby incorporated by reference. Briefly, the wells of a microtitre plate were charged sequentially with cultured cells and compounds of the invention (1.0×10^−4 to 1.0×10^−11 M in 10% DMSO prepared by dissolving compounds of the invention in DMSO and adding 11 μL of the DMSO solution to 100 μL of culture medium for a final DMSO concentration of 10%). Two of the following controls were also present in each microtitre plate: a solvent (DMSO) control without drug that yielded a 0% inhibition level and a trichloroacetic acid-treated well that yielded a 100% inhibition level. The cells were grown in culture (37° C., 5% CO2 atmosphere) for 48 hours then fixed by the addition of trichloroacetic acid. The wells were stained with sulforhodamine, washed with 1% acetic acid, and treated with 0.01 M tris buffer (100 μL) to solubilize the adherent dye. The absorbance of the dye solution was measured with a Molecular Devices SpectraMax340 plate reader. The percent inhibition values were obtained by calculating the proportional response of the experimental values to the absorbance values of the controls.

[2] = tested on: human colon adenocarcinoma, MDR positive (HCT-15) cells; experiment: 48-hour cellular proliferation assay (sulforhodamine staining), HCT-15 cells; assay type: cell-based; settings: 10^−4 M compound, HCT-15 cells (MDR positive); for inhibition at 100 µM: Homo sapiens
Procedure: as §1

`COc1cc(S(=O)(=O)Nc2ccc3ncn(C)c3c2)cc(OC)c1OC` [Example 35, 3,4,5-trimethoxy-N-(1-methyl-1H-benzimidazol-6-yl)benzenesulfonamide] showed an inhibition at 100 µM [1] of 34.5% and an inhibition at 100 µM [2] of 65.2%.

For `COc1cc(S(=O)(=O)Oc2ccc3[nH]ccc3c2)cc(OC)c1OC` [Example 39, 1H-indol-5-ol, (3,4,5-trimethoxybenzenesulfonate)ester], the “NCI-460 % inhibition at 10^−4 M” value [1] was 100.0% and the “HCT-15 % inhibition at 10^−4 M” value [2] was 100.0%.

For `COc1cc(S(=O)(=O)Nc2c(F)c(F)c(F)c(F)c2F)cc(OC)c1OC` [Example 27, 3,4,5-trimethoxy-N-(2,3,4,5,6-pentafluorophenyl)benzenesulfonamide], the inhibition at 100 µM [1] was 61.6% and the inhibition at 100 µM [2] was 57%.

For `COc1cc(S(=O)(=O)Nc2ccc3ccn(C)c3c2)cc(OC)c1OC` [Example 30, 3,4,5-trimethoxy-N-(1-methyl-1H-indol-6-yl)benzenesulfonamide], the inhibition at 100 µM [1] was 83.8% and the inhibition at 100 µM [2] was 94.9%.

In the case of `COc1cc(NS(=O)(=O)c2ccc(OC(F)(F)F)cc2)cc(OC)c1OC` [Example 3, 4-trifluoromethoxy-N-(3,4,5-trimethoxyphenyl)benzenesulfonamide], the inhibition at 100 µM [1] is reported as 100% and the inhibition at 100 µM [2] is reported as 94.4%.

In the case of `COc1cc(S(=O)(=O)Oc2ccc(C)cc2)cc(OC)c1OC` [Example 45, 4-methylphenyl 3,4,5-trimethoxybenzenesulfonate], the inhibition at 100 µM [1] is reported as 99.4% and the inhibition at 100 µM [2] is reported as 99.9%.

Compound `COc1cc(NS(=O)(=O)c2cc(OC)c(OC)c(OC)c2)ccc1F` [Example 25, N-(4-fluoro-3-methoxyphenyl)-3,4,5-trimethoxybenzenesulfonamide] has an inhibition at 100 µM [1] of 57.8% and an inhibition at 100 µM [2] of 62.1%.

`COc1cc(OS(=O)(=O)c2ccc3c(c2)CCN3C)cc(OC)c1OC` [Example 46, 3,4,5-trimethoxyphenyl 1-methyl-5-indolinesulfonate] gave an inhibition at 100 µM [1] of 99.5% and an inhibition at 100 µM [2] of 99.6%.

`COc1ccc(S(=O)(=O)Oc2cc(OC)c(OC)c(OC)c2)cc1` [Example 40, (3,4,5-trimethoxyphenyl) 4-methoxybenzenesulfonate] showed an inhibition at 100 µM [1] of 99.9% and an inhibition at 100 µM [2] of 99.9%.

`COc1ccc(CS(=O)(=O)c2cc(OC)c(OC)c(OC)c2)cc1N` [Example 91, 2-methoxy-5-(((3,4,5-trimethoxyphenyl)sulfonyl)methyl)aniline] was tested, and the inhibition at 100 µM [1] was 99.8% and the inhibition at 100 µM [2] was 95%.

`COc1cc(S(=O)(=O)Oc2ccc3[nH]ccc3c2)cc(OC)c1OC` [Example 42, 1H-indol-5-yl 3,4,5-trimethoxybenzenesulfonate] was tested, and the inhibition at 100 µM [1] was 100% and the inhibition at 100 µM [2] was 100%.

Compound `COc1cc(NS(=O)(=O)c2ccc([N+](=O)[O-])cc2)cc(OC)c1OC` [Example 5, 4-nitro-N-(3,4,5-trimethoxyphenyl)benzenesulfonamide] has an inhibition at 100 µM [1] of 99.9% and an inhibition at 100 µM [2] of 68.5%.

`COc1cc(NS(=O)(=O)c2ccccc2[N+](=O)[O-])cc(OC)c1OC` [Example 8, 2-nitro-N-(3,4,5-trimethoxyphenyl)benzenesulfonamide] showed an inhibition at 100 µM [1] of 50% and an inhibition at 100 µM [2] of 53.8%.

Compound `COc1cc(NS(=O)(=O)c2ccc(N)cc2)cc(OC)c1OC` [Example 6, 4-amino-N-(3,4,5-trimethoxyphenyl)benzenesulfonamide] has an inhibition at 100 µM [1] of over 95% and an inhibition at 100 µM [2] of 54.8%.

In the case of `COc1cc(NS(=O)(=O)c2c[nH]c3ccc(N)cc23)cc(OC)c1OC` [Example 17, 5-amino-N-(3,4,5-trimethoxyphenyl)-1H-indole-3-sulfonamide], the inhibition at 100 µM [1] is reported as under 9.1%.

Compound `COc1cc(NS(=O)(=O)c2ccc(C(F)(F)F)cc2)cc(OC)c1OC` [Example 4, 4-trifluoromethyl-N-(3,4,5-trimethoxyphenyl)benzenesulfonamide] has an inhibition at 100 µM [1] of 99.8% and an inhibition at 100 µM [2] of 82.6%.

For `COc1cc(S(=O)(=O)Nc2cccc3c2ccn3C)cc(OC)c1OC` [Example 29, 3,4,5-trimethoxy-N-(1-methyl-1H-indol-4-yl)benzenesulfonamide], the inhibition at 100 µM [1] was 90.8% and the inhibition at 100 µM [2] was 95.1%.

`COc1ccc(S(=O)(=O)Nc2cc(OC)c(OC)c(OC)c2)cc1[N+](=O)[O-]` [Example 9, 4-methoxy-3-nitro-N-(3,4,5-trimethoxyphenyl)benzenesulfonamide] was tested, and the inhibition at 100 µM [1] was 47.4% and the inhibition at 100 µM [2] was 77.2%.

Compound `COc1cc(S(=O)(=O)Nc2ccc3[nH]cc(Cl)c3c2)cc(OC)c1OC` [Example 33, N-(3-chloro-1H-indol-5-yl)-3,4,5-trimethoxybenzenesulfonamide] has an inhibition at 100 µM [1] of 2.8% and an inhibition at 100 µM [2] of 92%.

Work on `COc1ccc(OS(=O)(=O)c2cc(OC)c(OC)c(OC)c2)cc1` [Example 47, 4-methoxyphenyl 3,4,5-trimethoxybenzenesulfonate] yielded an inhibition at 100 µM [1] of 99.9% and an inhibition at 100 µM [2] of 100%.

`COc1ccc(S(=O)(=O)Cc2cc(OC)c(OC)c(OC)c2)cc1` [Example 94, 1,2,3-trimethoxy-5-(((4-methoxyphenyl)sulfonyl)methyl)benzene] was tested, and the inhibition at 100 µM [1] was 90.1% and the inhibition at 100 µM [2] was 97.7%.

`COc1ccc(S(=O)(=O)Cc2cc(OC)c(OC)c(OC)c2)cc1N` [Example 96, 2-methoxy-5-((3,4,5-trimethoxybenzyl)sulfonyl)aniline] gave an inhibition at 100 µM [1] of 99.9% and an inhibition at 100 µM [2] of 99.8%.

`COc1ccc(CSc2cc(OC)c(OC)c(OC)c2)cc1N` [Example 89, 2-methoxy-5-(((3,4,5-trimethoxyphenyl)sulfanyl)methyl)aniline] gave an inhibition at 100 µM [1] of 99.9% and an inhibition at 100 µM [2] of 99.9%.

Work on `COc1cc(OS(=O)(=O)c2ccc(N(C)C)cc2)cc(OC)c1OC` [Example 44, (3,4,5-trimethoxyphenyl)-4-(dimethylamino)benzenesulfonate] yielded an inhibition at 100 µM [1] of 99.9% and an inhibition at 100 µM [2] of 100%.

With `COc1cc(S(=O)(=O)Nc2ccc(OC(F)(F)F)cc2)cc(OC)c1OC` [Example 26, 3,4,5-trimethoxy-N-(4-(trifluoromethoxy)phenyl)benzenesulfonamide] the inhibition at 100 µM [1] was 46.7% and the inhibition at 100 µM [2] was 70.9%.

In the case of `COc1ccc(NS(=O)(=O)c2cc(OC)c(OC)c(OC)c2)cc1N` [Example 28, N-(3-amino-4-methoxyphenyl)-3,4,5-trimethoxybenzenesulfonamide hydrochloride], the inhibition at 100 µM [1] is reported as 99.8% and the inhibition at 100 µM [2] is reported as 99.9%.

Compound `COc1ccc(NC(=O)c2cc(OC)c(OC)c(OC)c2)cc1O` [Example 22, N-(3-hydroxy-4-methoxyphenyl)-3,4,5-trimethoxybenzamide] has an inhibition at 100 µM [1] of 99.5% and an inhibition at 100 µM [2] of 99.8%.

With `COc1cc(S(=O)(=O)Nc2ccc3c(ccn3C)c2)cc(OC)c1OC` [Example 23, N-(1-methyl-1H-indol-5-yl)-3,4,5-trimethoxybenzenesulfonamide] the inhibition at 100 µM [1] was 100% and the inhibition at 100 µM [2] was 100%.

In the case of “3,4-dimethoxy-N-(3,4,5-trimethoxyphenyl)benzamide [Example 2]”, the “NCI-460 % inhibition at 10^−4 M” value [1] is reported as 99.6% and the “HCT-15 % inhibition at 10^−4 M” value [2] is reported as over 95%.

In the case of `COc1cc(S(=O)(=O)Nc2ccc(N(C)C)cc2)cc(OC)c1OC` [Example 24, N-(4-(dimethylamino)phenyl)-3,4,5-trimethoxybenzenesulfonamide], the inhibition at 100 µM [1] is reported as 92% and the inhibition at 100 µM [2] is reported as 95.8%.

With `COc1cc(S(=O)(=O)N(CCN(C)C)c2ccc3c(ccn3C)c2)cc(OC)c1OC` [Example 38, 3,4,5-trimethoxy-N-(2-(dimethylamino)ethyl)-N-(1-methyl-1H-indol-5-yl)benzenesulfonamide] the inhibition at 100 µM [1] was 81% and the inhibition at 100 µM [2] was 87.5%.

`COc1ccc(C(C)(C)S(=O)(=O)c2cc(OC)c(OC)c(OC)c2)cc1N` [Example 92, 2-methoxy-5-(1-methyl-1-((3,4,5-trimethoxyphenyl)sulfonyl)ethyl)aniline] gave an inhibition at 100 µM [1] of 9.1% and an inhibition at 100 µM [2] of 67.1%.

In the case of `COc1ccc(C(C)(C)S(=O)(=O)c2cc(OC)c(OC)c(OC)c2)cc1` [Example 88, 1,2,3-trimethoxy-5-((1-(4-methoxyphenyl)-1-methylethyl)sulfonyl)benzene], the inhibition at 100 µM [1] is reported as 58.4% and the inhibition at 100 µM [2] is reported as 85.5%.

`COc1cc(S(=O)(=O)Nc2ccc3c(c2)ncn3C)cc(OC)c1OC` [Example 36, 3,4,5-trimethoxy-N-(1-methyl-1H-benzimidazol-5-yl)benzenesulfonamide] was tested, and the inhibition at 100 µM [1] was 99.5% and the inhibition at 100 µM [2] was 99.3%.

For `COc1cc(S(=O)(=O)Nc2ccc3[nH]ncc3c2)cc(OC)c1OC` [Example 34, N-(1H-indazol-5-yl)-3,4,5-trimethoxybenzenesulfonamide], the inhibition at 100 µM [1] was 18.5% and the inhibition at 100 µM [2] was 47.6%.

`COc1ccc(S(=O)(=O)Nc2cc(OC)c(OC)c(OC)c2)cc1N` [Example 10, 3-amino-4-methoxy-N-(3,4,5-trimethoxyphenyl)benzenesulfonamide hydrochloride] gave an inhibition at 100 µM [1] of 99.6% and an inhibition at 100 µM [2] of 99.8%.

For `COc1cc(NS(=O)(=O)c2ccc3c(ccn3C)c2)cc(OC)c1OC` [Example 19, 1-methyl-N-(3,4,5-trimethoxyphenyl)-1H-indole-5-sulfonamide], the inhibition at 100 µM [1] was 100%.
